The test system of this experiment is CK19 protein release by viable epithelial cells (cell lines). Put plainly: CK19-EPISPOT assay with cycloheximide in cell-cultures. Type of experiment: cell-based, human. The settings on record: cell lines incubated with 50 μg/mL cycloheximide during the incubation step of the EPISPOT assay. The method, then:
EPISPOT assays. Immobilon-P membrane 96-well plates (MAIPN450, Millipore Corporation, Bedford, Mass.) were coated overnight at 4° C. with the anti-CK19 mAb Ks19.1 (6 μg/mL) (Progen Biotechnik GMBH, Heidelberg, […].). Unbound mAb were removed by washing three times with PBS. The plates were then blocked with PBS supplemented with 5% FCS (Sigma, Chemical Co., Saint Louis, Mo.) for 1 h at room temperature and washed three times with PBS. To block protein synthesis, cell lines were incubated with 50 μg/mL of cycloheximide during the EPISPOT assay. Subsequently, viable cells were counted in a Kovac slide with trypan blue dye exclusion staining and finally plated in three replicate wells at different concentrations (1×10^5, 1×10^4, 1×10^3, 1×10^2, 10 and 1 cells). In addition, 5×10^4 to 1×10^5 of enriched CD45^− cells (i) from blood and bone marrow of colon and breast cancer patients, respectively, (ii) from the milk of healthy lactating women (normal primary mammary cells) or (iii) from normal and tumor colon tissues were seeded in different wells of the plates. […] Immunospots were counted by video camera imaging and computer assisted analysis (KS ELISPOT, Carl Zeiss Vision, Halbermoos, Germany). […]

The structures appear in SMILES notation.

`C[C@@H]1C[C@@H]([C@H](O)CC2CC(=O)NC(=O)C2)C(=O)[C@@H](C)C1` [cycloheximide]: the “size and number of CK19 immunospots (CK19-releasing cells)” value is “decrease in the size and the number of spots”.
